The source of these data is publication PMC11054269, “Synergistic Biomedical Potential and Molecular Docking Analyses of Coumarin–Triazole Hybrids as Tyrosinase Inhibitors: Design, Synthesis, In Vitro Profiling, and In Silico Studies” (Pharmaceuticals, 2024).

The IC50 is the concentration that inhibits the measured activity by half. As a reminder, the melting point is the temperature, or range, at which the solid turns liquid.

One data set deals with tyrosinase. The data set can be described thus: spectrophotometric tyrosinase inhibition assay with L-DOPA as substrate. Particulars: for %Age Inhibition: test concentration not given. The data set is classed as biochemical, Bacillus subtilis NCTC 10400. The method, then:
The synthesized coumarin–triazole hybrids were subjected to spectrophotometric assay for tyrosinase by employing […]. The tyrosine enzyme was extracted from Bacillus subtilis NCTC 10400. The anti-tyrosinase potential of all the coumarin–triazole hybrids was screened by using L-DOPA (levodopa) as the substrate. All the coumarin derivatives were dissolved in DMSO. […] The coumarin derivatives along with the tyrosine enzyme (0.5 mg/mL) were pre-incubated for 10 min in buffer at 25 °C. Pre-incubation of tyrosinase and coumarin derivative was followed by the addition of levodopa (0.5 mM), and the reaction was monitored by absorbance measurement at 475 nm. The IC50 values were calculated by interpolation of the dose–response curves. The following formula was applied to calculate the percentage inhibition of tyrosinase:%age Inhibition = (B − S/B) × 100 where S and B are the absorbance values for the sample and blank, respectively.

The mark [1] stands for this setting: L-DOPA 0.5 mM, pH 6.8, 25 °C, means ± SEs (n = 3), read-out: IC50.
The mark [2] stands for this setting: L-DOPA substrate, unit inferred, read-out: IC50 (unit inferred).

SMILES strings stand for the structures. “And” between values parts separate entries of the source, which are not always exact repeats. Identical values can stand only once. Like-named read-outs stand apart in the source and are kept apart here.

In the case of `Cc1cc(=O)oc2cc(OC(=O)CSc3nnc(-c4cc5ccccc5o4)n3-c3ccccc3)ccc12` [Compound 17a, 4-Methyl-2-oxo-2H-chromen-7-yl-2-((5-(benzofuran-2-yl)-4-phenyl-4H-1,2,4-triazol-3-yl)thio)acetate], the melting point is 152 °C. Besides, at tyrosinase (setting [1]), the half-maximal inhibitory concentration (IC50) was determined as 8.13 ± 0.13 µM. Moreover, the “%Age Inhibition” value in the data set on tyrosinase (L-DOPA 0.5 mM, pH 6.8, 25 °C) was 12.023 ± 0.21% and 12.02 ± 0.21%. Besides, the IC50 at tyrosinase (setting [2]) stood at 8.14 ± 0.13 µM.

`COc1cccc2cc(-c3nnc(SCC(=O)Oc4ccc5c(C)cc(=O)oc5c4)n3-c3ccccc3)oc12` [Compound 17b, 4-Methyl-2-oxo-2H-chromen-7-yl-2-((5-(7-methoxybenzofuran-2-yl)-4-phenyl-4H-1,2,4-triazol-3-yl)thio)acetate] returned a melting point of 140 °C. Further, the IC50 at tyrosinase (setting [1]) was determined as 14.1 ± 0.17 µM. Further, the “%Age Inhibition” value in the data set with tyrosinase (L-DOPA 0.5 mM, pH 6.8, 25 °C) is 6.3009 ± 0.14% and 6.30 ± 0.14%. The IC50 on tyrosinase (setting [2]) came out at 14.1 ± 0.17 µM.

`COc1ccc(-n2c(SCC(=O)Oc3ccc4c(C)cc(=O)oc4c3)nnc2-c2cc3cccc(OC)c3o2)cc1` [Compound 17c, 4-Methyl-2-oxo-2H-chromen-7-yl-2-((5-(7-methoxybenzofuran-2-yl)-4-(4-methoxyphenyl)-4H-1,2,4-triazol-3-yl)thio)acetate] gave a melting point of 137 °C. Besides, at tyrosinase (setting [1]), the IC50 is 13 ± 0.32 µM. Besides, the “%Age Inhibition” value with tyrosinase (L-DOPA 0.5 mM, pH 6.8, 25 °C) is 5.11 ± 0.15%. In addition, the concentration for half-maximal inhibition (IC50) on tyrosinase (setting [2]) was found to be 13 ± 0.32 µM.

In the case of `Cc1cc(=O)oc2cc(OC(=O)CSc3nnc(-c4cc5cc(Br)ccc5o4)n3-c3ccccc3)ccc12` [Compound 17d, 4-Methyl-2-oxo-2H-chromen-7-yl-2-((5-(5-bromobenzofuran-2-yl)-4-phenyl-4H-1,2,4-triazol-3-yl)thio)acetate], the melting point turned out to be 232 °C. Besides, the 50% inhibitory concentration (IC50) on tyrosinase (setting [1]) was determined as 5.89 ± 0.09 µM. Moreover, in the data set on tyrosinase (L-DOPA 0.5 mM, pH 6.8, 25 °C), the “%Age Inhibition” value is 23.097 ± 0.13% and 23.09 ± 0.13%. On tyrosinase (setting [2]), the IC50 was found to be 5.89 ± 0.09 µM.

With `COc1ccc(-n2c(SCC(=O)Oc3ccc4c(C)cc(=O)oc4c3)nnc2-c2cc3cc(Br)ccc3o2)cc1` [Compound 17e, 4-Methyl-2-oxo-2H-chromen-7-yl-2-((5-(5-bromobenzofuran-2-yl)-4-(4-methoxyphenyl)-4H-1,2,4-triazol-3-yl)thio)acetate], the melting point was determined as 220 °C. Besides, on tyrosinase (setting [1]), the IC50 is 0.339 µM and 0.33 µM. For the same compound, in the data set with tyrosinase (L-DOPA 0.5 mM, pH 6.8, 25 °C), the “%Age Inhibition” value turned out to be 30.85 ± 0.15%. Besides, the IC50 on tyrosinase (setting [2]) turned out to be 0.339 ± 0.08 µM.

As for `Cc1cc(=O)oc2cc(OC(=O)CSc3nnc(-c4cc5cc(Cl)ccc5o4)n3-c3ccccc3)ccc12` [Compound 17f, 4-Methyl-2-oxo-2H-chromen-7-yl-2-((5-(5-chlorobenzofuran-2-yl)-4-phenyl-4H-1,2,4-triazol-3-yl)thio)acetate], the melting point is 226 °C. The concentration for half-maximal inhibition (IC50) at tyrosinase (setting [1]) is 3.15 µM and 3.14 µM. Moreover, the “%Age Inhibition” value in the data set with tyrosinase (L-DOPA 0.5 mM, pH 6.8, 25 °C) is 36.134 ± 0.21% and 36.13 ± 0.21%. For the same compound, the half-maximal inhibitory concentration (IC50) on tyrosinase (setting [2]) was 3.15 ± 0.23 µM.

Turning to `COc1ccc(-n2c(SCC(=O)Oc3ccc4c(C)cc(=O)oc4c3)nnc2-c2cc3cc(Cl)ccc3o2)cc1` [Compound 17g, 4-Methyl-2-oxo-2H-chromen-7-yl2-((5-(5-chlorobenzofuran-2-yl)-4-(4-methoxyphenyl)-4H-1,2,4-triazol-3-yl)thio)acetate], the melting point turned out to be 200 °C. Besides, the half-inhibitory concentration (IC50) on tyrosinase (setting [1]) was determined as 3.98 µM. In addition, the “%Age Inhibition” value in the data set on tyrosinase (L-DOPA 0.5 mM, pH 6.8, 25 °C) was 31.0609 ± 0.19% and 31.060 ± 0.19%. Also, the IC50 at tyrosinase (setting [2]) was determined as 3.98 ± 0.12 µM.

For `Cc1cc(=O)oc2cc(OC(=O)CSc3nnc(-c4cc5c(ccc6ccccc65)o4)n3-c3ccccc3)ccc12` [Compound 17h, 4-Methyl-2-oxo-2H-chromen-7-yl-2-((5-(naphtho[2,1-b]furan-2-yl)-4-phenyl-4H-1,2,4-triazol-3-yl)thio)acetate], at tyrosinase (setting [1]), the IC50 came out at 5.13 ± 0.05 µM. Further, the “%Age Inhibition” value in the data set on tyrosinase (L-DOPA 0.5 mM, pH 6.8, 25 °C) was 30.62 ± 0.33%.

As for `O=c1cc(CO)occ1O` [Kojic acid, reference compound], the “%Age Inhibition” value with tyrosinase (L-DOPA 0.5 mM, pH 6.8, 25 °C) was determined as 6.79 ± 0.58%.
